# Test results taken from patent US20260262643A1, “HERBICIDAL BENZOXAZINES” (FMC CORPORATION, priority 2022, published 2026).
# What was measured:
# barnyardgrass [1] = test: Test C preemergence; assay type: in vivo, Echinochloa crusgalli; settings: for Barnyardgrass plant response rating: preemergence, 0 to 100 scale (0 no effect, 100 complete control)
# Summary of the method: (§1)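 Visual injury score, 0–100 (100 = complete control), taken 10 days after treatment relative to untreated controls. Pre: directed spray onto soil over sown seeds. Post: foliar spray at one- to two-leaf stage, 2–10 cm. Solvent/surfactant formulation; loam–sand soil; greenhouse.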
# blackgrass [2] = test: Test C preemergence; assay type: in vivo, Alopecurus myosuroides; settings: for Blackgrass plant response rating: preemergence, 0 to 100 scale (0 no effect, 100 complete control)
# Summary of the method: as §1
# corn [3] = test: Test C preemergence; assay type: in vivo, Zea mays; settings: for Corn plant response rating: preemergence, 0 to 100 scale (0 no effect, 100 complete control)
# Summary of the method: as §1
# green foxtail [4] = test: Test C preemergence; assay type: in vivo, Setaria viridis; settings: for Foxtail, Green plant response rating: preemergence, 0 to 100 scale (0 no effect, 100 complete control)
# Summary of the method: as §1
# kochia [5] = test: Test C preemergence; assay type: in vivo, Bassia scoparia; settings: for Kochia plant response rating: preemergence, 0 to 100 scale (0 no effect, 100 complete control)
# Summary of the method: as §1
# oat, wild [6] = test: Test C preemergence; assay type: in vivo, Avena fatua; settings: for Oat, Wild plant response rating: preemergence, 0 to 100 scale (0 no effect, 100 complete control)
# Summary of the method: as §1
# pigweed, palmer [7] = test: Test C preemergence; assay type: in vivo, Amaranthus palmeri; settings: for Pigweed, Palmer plant response rating: preemergence, 0 to 100 scale (0 no effect, 100 complete control)
# Summary of the method: as §1
# ragweed [8] = test: Test C preemergence; assay type: in vivo, Ambrosia artemisiifolia; settings: for Ragweed plant response rating: preemergence, 0 to 100 scale (0 no effect, 100 complete control)
# Summary of the method: as §1
# ryegrass, Italian [9] = test: Test C preemergence; assay type: in vivo, Lolium multiflorum; settings: for Ryegrass, Italian plant response rating: preemergence, 0 to 100 scale (0 no effect, 100 complete control)
# Summary of the method: as §1
# soybean [10] = test: Test C preemergence; assay type: in vivo, Glycine max; settings: for Soybean plant response rating: preemergence, 0 to 100 scale (0 no effect, 100 complete control)
# Summary of the method: as §1
# wheat [11] = test: Test C preemergence; assay type: in vivo, Triticum aestivum; settings: for Wheat plant response rating: preemergence, 0 to 100 scale (0 no effect, 100 complete control)
# Summary of the method: as §1
# barnyardgrass [12] = test: Test C postemergence; assay type: in vivo, Echinochloa crusgalli; settings: 10 days
# Summary of the method: as §1
# blackgrass [13] = test: Test C postemergence; assay type: in vivo, Alopecurus myosuroides; settings: 10 days
# Summary of the method: as §1
# corn [14] = test: Test C postemergence; assay type: in vivo, Zea mays; settings: 10 days
# Summary of the method: as §1
# green foxtail [15] = test: Test C postemergence; assay type: in vivo, Setaria viridis; settings: 10 days
# Summary of the method: as §1
# kochia [16] = test: Test C postemergence; assay type: in vivo, Bassia scoparia; settings: 10 days
# Summary of the method: as §1
# oat, wild [17] = test: Test C postemergence; assay type: in vivo, Avena fatua; settings: 10 days
# Summary of the method: as §1
# pigweed, palmer [18] = test: Test C postemergence; assay type: in vivo, Amaranthus palmeri; settings: 10 days
# Summary of the method: as §1
# ragweed [19] = test: Test C postemergence; assay type: in vivo, Ambrosia artemisiifolia; settings: 10 days
# Summary of the method: as §1
# ryegrass, Italian [20] = test: Test C postemergence; assay type: in vivo, Lolium multiflorum; settings: 10 days
# Summary of the method: as §1
# soybean [21] = test: Test C postemergence; assay type: in vivo, Glycine max; settings: 10 days
# Summary of the method: as §1
# wheat [22] = test: Test C postemergence; assay type: in vivo, Triticum aestivum; settings: 10 days
# Summary of the method: as §1
# galium = test: Test C postemergence; assay type: in vivo, Galium aparine; settings: 10 days
# Summary of the method: as §1
# horseweed = test: Test C postemergence; assay type: in vivo, Erigeron canadensis; settings: 10 days
# Summary of the method: as §1
# barnyardgrass [23] = test: Test D flooded paddy test; assay type: in vivo, Echinochloa crus-galli; settings: 250 g ai/ha, applied to paddy water, visual rating after 13 to 14 days, scale 0 to 100 (0 no effect, 100 complete control)
# Summary of the method: (§2)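 Compounds go straight into paddy water over 2-leaf plants in pots flooded to 3 cm. Greenhouse holding lasts 13 to 14 days. Injury is scored by eye against controls from 0 (none) to 100 (complete control).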
# ducksalad = test: Test D flooded paddy test; assay type: in vivo, Heteranthera limosa; settings: 250 g ai/ha, applied to paddy water, visual rating after 13 to 14 days, scale 0 to 100 (0 no effect, 100 complete control)
# Summary of the method: as §2
# rice = test: Test D flooded paddy test; assay type: in vivo, Oryza sativa; settings: 250 g ai/ha, applied to paddy water, visual rating after 13 to 14 days, scale 0 to 100 (0 no effect, 100 complete control)
# Summary of the method: as §2
# sedge, umbrella = test: Test D flooded paddy test; assay type: in vivo, Cyperus difformis; settings: 250 g ai/ha, applied to paddy water, visual rating after 13 to 14 days, scale 0 to 100 (0 no effect, 100 complete control)
# Summary of the method: as §2
# [24] = 125 g ai/ha, postemergence, 0 to 100 scale, 0 no effect, 100 complete control
# [25] = 500 g ai/ha, postemergence, 0 to 100 scale (0 no effect, 100 complete control)
# [26] = Preemergence, 125 g ai/ha, 0 to 100 scale, 0 no effect, 100 complete control
# [27] = Postemergence, 125 g ai/ha, 0 to 100 scale (0 no effect, 100 complete control)
smiles,measurement,setting,value
"CC(C)c1ncn(-c2cccc(C(=O)N3CC(C(F)(F)F)Oc4c(Cl)cccc43)c2)n1 (single isomer, unassigned) [Compound 288]",Barnyardgrass plant response rating,barnyardgrass [1]; 500 g ai/ha,30
same,Barnyardgrass plant response rating,"barnyardgrass [1]; Test C, 125 g ai/ha",0
same,Blackgrass plant response rating,blackgrass [2]; 500 g ai/ha,60
same,Blackgrass plant response rating,"blackgrass [2]; Test C, 125 g ai/ha",10
same,Corn plant response rating,corn [3]; 500 g ai/ha,10
same,Corn plant response rating,"corn [3]; Test C, 125 g ai/ha",0
same,"Foxtail, Green plant response rating",green foxtail [4]; 500 g ai/ha,70
same,"Foxtail, Green plant response rating","green foxtail [4]; Test C, 125 g ai/ha",0
same,Kochia plant response rating,kochia [5]; 500 g ai/ha,50
same,Kochia plant response rating,"kochia [5]; Test C, 125 g ai/ha",10
same,"Oat, Wild plant response rating","oat, wild [6]; 500 g ai/ha",20
same,"Oat, Wild plant response rating","oat, wild [6]; Test C, 125 g ai/ha",20
same,"Pigweed, Palmer plant response rating","pigweed, palmer [7]; 500 g ai/ha",80
same,"Pigweed, Palmer plant response rating","pigweed, palmer [7]; Test C, 125 g ai/ha",50
same,Ragweed plant response rating,ragweed [8]; 500 g ai/ha,0
same,Ragweed plant response rating,"ragweed [8]; Test C, 125 g ai/ha",0
same,"Ryegrass, Italian plant response rating","ryegrass, Italian [9]; 500 g ai/ha",80
same,"Ryegrass, Italian plant response rating","ryegrass, Italian [9]; Test C, 125 g ai/ha",80
same,Soybean plant response rating,soybean [10]; 500 g ai/ha,40
same,Soybean plant response rating,"soybean [10]; Test C, 125 g ai/ha",40
same,Wheat plant response rating,wheat [11]; 500 g ai/ha,20
same,Wheat plant response rating,"wheat [11]; Test C, 125 g ai/ha",0
same,"Plant response rating, Barnyardgrass",barnyardgrass [12]; [24],10
same,"Plant response rating, Barnyardgrass",barnyardgrass [12]; [25],10
same,"Plant response rating, Blackgrass",blackgrass [13]; [24],0
same,"Plant response rating, Blackgrass",blackgrass [13]; [25],10
same,"Plant response rating, Corn",corn [14]; [24],0
same,"Plant response rating, Corn",corn [14]; [25],10
same,"Plant response rating, Foxtail, Green",green foxtail [15]; [24],10
same,"Plant response rating, Foxtail, Green",green foxtail [15]; [25],20
same,"Plant response rating, Kochia",kochia [16]; [24],40
same,"Plant response rating, Kochia",kochia [16]; [25],80
same,"Plant response rating, Oat, Wild","oat, wild [17]; [24]",0
same,"Plant response rating, Oat, Wild","oat, wild [17]; [25]",0
same,"Plant response rating, Pigweed, Palmer","pigweed, palmer [18]; [24]",10
same,"Plant response rating, Pigweed, Palmer","pigweed, palmer [18]; [25]",50
same,"Plant response rating, Ragweed",ragweed [19]; [24],30
same,"Plant response rating, Ragweed",ragweed [19]; [25],30
same,"Plant response rating, Ryegrass, Italian","ryegrass, Italian [20]; [24]",0
same,"Plant response rating, Ryegrass, Italian","ryegrass, Italian [20]; [25]",20
same,"Plant response rating, Soybean",soybean [21]; [24],60
same,"Plant response rating, Soybean",soybean [21]; [25],80
same,"Plant response rating, Wheat",wheat [22]; [24],10
same,"Plant response rating, Wheat",wheat [22]; [25],20
same,"Plant response rating, Galium",galium; [24],60
same,"Plant response rating, Galium",galium; [25],50
same,"Plant response rating, Horseweed",horseweed; [24],0
same,"Plant response rating, Horseweed",horseweed; [25],0
same,"Plant response rating, Barnyardgrass (Flood)",barnyardgrass [23],0
same,"Plant response rating, Ducksalad (Flood)",ducksalad,0
same,"Plant response rating, Rice (Flood)",rice,0
same,"Plant response rating, Sedge, Umbrella (Flood)","sedge, umbrella",0
Cc1ccc(-n2cnc(C#N)n2)cc1C(=O)N1C[C@H](C)Oc2c(Cl)cccc21 [Compound 363],Barnyardgrass plant response rating,barnyardgrass [1]; 500 g ai/ha,60
same,"Plant response rating, Barnyardgrass",barnyardgrass [1]; [26],40
same,Blackgrass plant response rating,blackgrass [2]; 500 g ai/ha,30
same,"Plant response rating, Blackgrass",blackgrass [2]; [26],0
same,Corn plant response rating,corn [3]; 500 g ai/ha,0
same,"Plant response rating, Corn",corn [3]; [26],0
same,"Foxtail, Green plant response rating",green foxtail [4]; 500 g ai/ha,100
same,"Plant response rating, Foxtail, Green",green foxtail [4]; [26],100
same,Kochia plant response rating,kochia [5]; 500 g ai/ha,0
same,"Plant response rating, Kochia",kochia [5]; [26],0
same,"Oat, Wild plant response rating","oat, wild [6]; 500 g ai/ha",0
same,"Plant response rating, Oat, Wild","oat, wild [6]; [26]",0
same,"Pigweed, Palmer plant response rating","pigweed, palmer [7]; 500 g ai/ha",100
same,"Plant response rating, Pigweed, Palmer","pigweed, palmer [7]; [26]",80
same,Ragweed plant response rating,ragweed [8]; 500 g ai/ha,80
same,"Plant response rating, Ragweed",ragweed [8]; [26],20
same,"Ryegrass, Italian plant response rating","ryegrass, Italian [9]; 500 g ai/ha",70
same,"Plant response rating, Ryegrass, Italian","ryegrass, Italian [9]; [26]",30
same,Soybean plant response rating,soybean [10]; 500 g ai/ha,0
same,"Plant response rating, Soybean",soybean [10]; [26],20
same,Wheat plant response rating,wheat [11]; 500 g ai/ha,0
same,"Plant response rating, Wheat",wheat [11]; [26],0
same,"Plant response rating, Barnyardgrass",barnyardgrass [12]; [25],50
same,"Plant response rating, Barnyardgrass",barnyardgrass [12]; [27],20
same,"Plant response rating, Blackgrass",blackgrass [13]; [25],60
same,"Plant response rating, Blackgrass",blackgrass [13]; [27],30
same,"Plant response rating, Corn",corn [14]; [25],10
same,"Plant response rating, Corn",corn [14]; [27],10
same,"Plant response rating, Foxtail, Green",green foxtail [15]; [25],50
same,"Plant response rating, Foxtail, Green",green foxtail [15]; [27],30
same,"Plant response rating, Kochia",kochia [16]; [25],80
same,"Plant response rating, Kochia",kochia [16]; [27],40
same,"Plant response rating, Oat, Wild","oat, wild [17]; [25]",20
same,"Plant response rating, Oat, Wild","oat, wild [17]; [27]",0
same,"Plant response rating, Pigweed, Palmer","pigweed, palmer [18]; [25]",90
same,"Plant response rating, Pigweed, Palmer","pigweed, palmer [18]; [27]",70
same,"Plant response rating, Ragweed",ragweed [19]; [25],50
same,"Plant response rating, Ragweed",ragweed [19]; [27],0
same,"Plant response rating, Ryegrass, Italian","ryegrass, Italian [20]; [25]",50
same,"Plant response rating, Ryegrass, Italian","ryegrass, Italian [20]; [27]",40
same,"Plant response rating, Soybean",soybean [21]; [25],100
same,"Plant response rating, Soybean",soybean [21]; [27],100
same,"Plant response rating, Wheat",wheat [22]; [25],20
same,"Plant response rating, Wheat",wheat [22]; [27],20
same,"Plant response rating, Galium",galium; [25],100
same,"Plant response rating, Galium",galium; [27],100
same,"Plant response rating, Horseweed",horseweed; [25],0
same,"Plant response rating, Horseweed",horseweed; [27],0
same,"Plant response rating, Barnyardgrass (Flood)",barnyardgrass [23],0
same,"Plant response rating, Ducksalad (Flood)",ducksalad,0
same,"Plant response rating, Rice (Flood)",rice,0
same,"Plant response rating, Sedge, Umbrella (Flood)","sedge, umbrella",0
